# Laboratory results from ChEMBL document CHEMBL1201862, “PubChem BioAssay data set” (2004).
#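 Values below derive from 48-hour exposures of cells grown in 96-well plates, with endpoints linearly interpolated between the two concentrations bracketing the appropriate inhibition level. GI50: concentration for 50% inhibition of growth.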 Calls of active or inactive are those of the source. Rule as the data show it: active = GI50 up to about 1.1 µM and inactive = higher.
# How the values were obtained:
# Assay in all cases: NCI anticancer screen, dose series, 48 h
# 786-0 = tested on: 786-0
# A498 = tested on: A498
# A549 = tested on: A549
# ACHN = tested on: ACHN
# CAKI-1 = tested on: CAKI-1
# CCRF-CEM = tested on: CCRF-CEM
# EKVX = tested on: EKVX
# HCC 2998 = tested on: HCC 2998
# HCT-116 = tested on: HCT-116
# HCT-15 = tested on: HCT-15
# HL-60 = tested on: HL-60
# HOP-62 = tested on: HOP-62
# HOP-92 = tested on: HOP-92
# HT-29 = tested on: HT-29
# IGROV-1 = tested on: IGROV-1
# K562 = tested on: K562
# KM-20L2 = tested on: KM-20L2
# KM12 = tested on: KM12
# LOX IMVI = tested on: LOX IMVI
# LXFL 529 = tested on: LXFL 529
# M14 = tested on: M14
# M19-MEL = tested on: M19-MEL
# MOLT-4 = tested on: MOLT-4
# Malme-3M = tested on: Malme-3M
# NCI-H226 = tested on: NCI-H226
# NCI-H23 = tested on: NCI-H23
# NCI-H460 = tested on: NCI-H460
# NCI-H522 = tested on: NCI-H522
# OVCAR-3 = tested on: OVCAR-3
# OVCAR-4 = tested on: OVCAR-4
# OVCAR-5 = tested on: OVCAR-5
# OVCAR-8 = tested on: OVCAR-8
# RPMI-8226 = tested on: RPMI-8226
# SF-268 = tested on: SF-268
# SF-295 = tested on: SF-295
# SF-539 = tested on: SF-539
# SK-MEL-28 = tested on: SK-MEL-28
# SK-MEL-2 = tested on: SK-MEL-2
# SK-MEL-5 = tested on: SK-MEL-5
# SK-OV-3 = tested on: SK-OV-3
# SN12C = tested on: SN12C
# SNB-19 = tested on: SNB-19
# SNB-78 = tested on: SNB-78
# SR = tested on: SR
# SW-620 = tested on: SW-620
# TK-10 = tested on: TK-10
# U-251 = tested on: U-251
# UACC-257 = tested on: UACC-257
# UACC-62 = tested on: UACC-62
# UO-31 = tested on: UO-31
# XF498 = tested on: XF498
# BT-549 = tested on: BT-549
# COLO 205 = tested on: COLO 205
# DU-145 = tested on: DU-145
# Hs-578T = tested on: Hs-578T
# MCF7 = tested on: MCF7
# MDA-MB-231 = tested on: MDA-MB-231
# MDA-MB-435 = tested on: MDA-MB-435
# MDA-N = tested on: MDA-N
# NCI/ADR-RES = tested on: NCI/ADR-RES
# PC-3 = tested on: PC-3
# RXF 393 = tested on: RXF 393
# SNB-75 = tested on: SNB-75
# T47D = tested on: T47D
smiles,measurement,setting,value
CC(C)(C=O)CC(C#N)/C(=N\NC(N)=O)C(=O)Nc1ccccc1C(N)=O (stereo not given),GI50,786-0,> 100 µM (inactive)
same,GI50,A498,> 100 µM (inactive)
same,GI50,A549,> 100 µM (inactive)
same,GI50,ACHN,> 100 µM (inactive)
same,GI50,CAKI-1,> 100 µM (inactive)
same,GI50,CCRF-CEM,> 100 µM (inactive)
same,GI50,EKVX,> 100 µM (inactive)
same,GI50,HCC 2998,> 100 µM (inactive)
same,GI50,HCT-116,> 100 µM (inactive)
same,GI50,HCT-15,> 100 µM
same,GI50,HL-60,> 100 µM (inactive)
same,GI50,HOP-62,> 100 µM (inactive)
same,GI50,HOP-92,38.6 µM (inactive)
same,GI50,HT-29,> 100 µM (inactive)
same,GI50,IGROV-1,> 100 µM (inactive)
same,GI50,K562,> 100 µM (inactive)
same,GI50,KM-20L2,> 100 µM (inactive)
same,GI50,KM12,> 100 µM (inactive)
same,GI50,LOX IMVI,> 100 µM (inactive)
same,GI50,LXFL 529,> 100 µM (inactive)
same,GI50,M14,> 100 µM (inactive)
same,GI50,M19-MEL,> 100 µM (inactive)
same,GI50,MOLT-4,> 100 µM (inactive)
same,GI50,Malme-3M,> 100 µM (inactive)
same,GI50,NCI-H226,> 100 µM (inactive)
same,GI50,NCI-H23,> 100 µM (inactive)
same,GI50,NCI-H460,> 100 µM (inactive)
same,GI50,NCI-H522,> 100 µM (inactive)
same,GI50,OVCAR-3,> 100 µM (inactive)
same,GI50,OVCAR-4,> 100 µM (inactive)
same,GI50,OVCAR-5,> 100 µM (inactive)
same,GI50,OVCAR-8,> 100 µM (inactive)
same,GI50,RPMI-8226,> 100 µM (inactive)
same,GI50,SF-268,> 100 µM (inactive)
same,GI50,SF-295,> 100 µM (inactive)
same,GI50,SF-539,> 100 µM (inactive)
same,GI50,SK-MEL-28,> 100 µM (inactive)
same,GI50,SK-MEL-2,> 100 µM (inactive)
same,GI50,SK-MEL-5,> 100 µM (inactive)
same,GI50,SK-OV-3,> 100 µM (inactive)
same,GI50,SN12C,> 100 µM (inactive)
same,GI50,SNB-19,> 100 µM (inactive)
same,GI50,SNB-78,> 100 µM (inactive)
same,GI50,SR,> 100 µM (inactive)
same,GI50,SW-620,> 100 µM (inactive)
same,GI50,TK-10,> 100 µM (inactive)
same,GI50,U-251,> 100 µM (inactive)
same,GI50,UACC-257,> 100 µM (inactive)
same,GI50,UACC-62,> 100 µM (inactive)
same,GI50,UO-31,> 100 µM (inactive)
same,GI50,XF498,> 100 µM (inactive)
Cc1cc(/N=N/c2c(O)ccc3ccccc23)ccc1/N=N/c1cccc([N+](C)(C)C)c1,GI50,786-0,21 µM (inactive)
same,GI50,A498,44.7 µM (inactive)
same,GI50,A549,12.1 µM (inactive)
same,GI50,ACHN,23.8 µM (inactive)
same,GI50,BT-549,3.08 µM (inactive)
same,GI50,CAKI-1,22.7 µM (inactive)
same,GI50,CCRF-CEM,7.16 µM (inactive)
same,GI50,COLO 205,2.47 µM (inactive)
same,GI50,DU-145,19.6 µM (inactive)
same,GI50,EKVX,17.6 µM (inactive)
same,GI50,HCC 2998,21.1 µM (inactive)
same,GI50,HCT-116,9.82 µM (inactive)
same,GI50,HCT-15,31 µM
same,GI50,HL-60,2.38 µM (inactive)
same,GI50,HOP-62,11.4 µM (inactive)
same,GI50,HOP-92,15.6 µM (inactive)
same,GI50,HT-29,3.66 µM (inactive)
same,GI50,Hs-578T,4.17 µM (inactive)
same,GI50,IGROV-1,2.87 µM (inactive)
same,GI50,K562,13.2 µM (inactive)
same,GI50,KM12,3.37 µM (inactive)
same,GI50,LOX IMVI,4.56 µM (inactive)
same,GI50,M14,13.6 µM (inactive)
same,GI50,MCF7,7.1 µM (inactive)
same,GI50,MDA-MB-231,8.57 µM (inactive)
same,GI50,MDA-MB-435,6.25 µM (inactive)
same,GI50,MDA-N,12.9 µM (inactive)
same,GI50,MOLT-4,10.8 µM (inactive)
same,GI50,Malme-3M,9.64 µM (inactive)
same,GI50,NCI-H226,6.41 µM (inactive)
same,GI50,NCI-H23,13.3 µM (inactive)
same,GI50,NCI-H460,9.42 µM (inactive)
same,GI50,NCI-H522,3.98 µM (inactive)
same,GI50,NCI/ADR-RES,74.1 µM (inactive)
same,GI50,OVCAR-3,5.21 µM (inactive)
same,GI50,OVCAR-4,> 27.1 µM (inactive)
same,GI50,OVCAR-5,17.7 µM (inactive)
same,GI50,OVCAR-8,10.1 µM (inactive)
same,GI50,PC-3,6.81 µM (inactive)
same,GI50,RPMI-8226,4.22 µM (inactive)
same,GI50,RXF 393,16.1 µM (inactive)
same,GI50,SF-268,10.7 µM (inactive)
same,GI50,SF-295,20.6 µM (inactive)
same,GI50,SF-539,5.71 µM (inactive)
same,GI50,SK-MEL-28,16 µM (inactive)
same,GI50,SK-MEL-2,7.83 µM (inactive)
same,GI50,SK-MEL-5,2.86 µM (inactive)
same,GI50,SK-OV-3,21.3 µM (inactive)
same,GI50,SN12C,7.11 µM (inactive)
same,GI50,SNB-19,3.71 µM (inactive)
same,GI50,SNB-75,4 µM (inactive)
same,GI50,SR,7.69 µM (inactive)
same,GI50,SW-620,10.1 µM (inactive)
same,GI50,T47D,6.22 µM (inactive)
same,GI50,TK-10,29.5 µM (inactive)
same,GI50,U-251,1.58 µM (inactive)
same,GI50,UACC-257,12.2 µM (inactive)
same,GI50,UACC-62,14.7 µM (inactive)
same,GI50,UO-31,15.7 µM (inactive)
